For the data set the following is noted: Liquid, Ebulliometric method (Recirculating still).

Numbers after ± are expanded uncertainties.

Consider four molecules from the NIST ThermoML archive (doi:10.1021/acs.jced.8b00908).

By vapor or sublimation pressure is commonly meant the equilibrium pressure above the liquid or solid.

Regarding `ClC(Cl)Cl` [trichloromethane], the “vapor or sublimation pressure” value (334.12 K) is reported as 101.3 ± 3.5 kPa.

As for `C=CCO` [2-propenol], the “vapor or sublimation pressure” value (369.94 K) is listed as 101.3 ± 3.5 kPa.

For `CCOC(C)=O` [ethyl acetate], under “350.28 K”, the “vapor or sublimation pressure” value is 101.3 ± 3.5 kPa.

For `CCC(=O)OC` [methyl propanoate], the “vapor or sublimation pressure” value (352.47 K) stood at 101.3 ± 3.5 kPa.
